“Also recorded” adds a separate entry of the source. Bounds are passed on as bounds.

One data set has as its target CK2 (Homo sapiens, UniProt P68400). The data set is described as follows: IC50 towards inhibition of various kinases: CK2. It is filed as biochemical.
Another data set has as its system GSK-3α/β. The data set is described as follows: IC50 towards inhibition of various kinases: GSK-3α/β. It is filed as biochemical.
In another data set the target is DYRK3 (Homo sapiens, UniProt O43781). Description: IC50 towards inhibition of various kinases: DYRK3. Type of data set: biochemical.
Chain of DYRK3 (O43781 whole entry, species assumed): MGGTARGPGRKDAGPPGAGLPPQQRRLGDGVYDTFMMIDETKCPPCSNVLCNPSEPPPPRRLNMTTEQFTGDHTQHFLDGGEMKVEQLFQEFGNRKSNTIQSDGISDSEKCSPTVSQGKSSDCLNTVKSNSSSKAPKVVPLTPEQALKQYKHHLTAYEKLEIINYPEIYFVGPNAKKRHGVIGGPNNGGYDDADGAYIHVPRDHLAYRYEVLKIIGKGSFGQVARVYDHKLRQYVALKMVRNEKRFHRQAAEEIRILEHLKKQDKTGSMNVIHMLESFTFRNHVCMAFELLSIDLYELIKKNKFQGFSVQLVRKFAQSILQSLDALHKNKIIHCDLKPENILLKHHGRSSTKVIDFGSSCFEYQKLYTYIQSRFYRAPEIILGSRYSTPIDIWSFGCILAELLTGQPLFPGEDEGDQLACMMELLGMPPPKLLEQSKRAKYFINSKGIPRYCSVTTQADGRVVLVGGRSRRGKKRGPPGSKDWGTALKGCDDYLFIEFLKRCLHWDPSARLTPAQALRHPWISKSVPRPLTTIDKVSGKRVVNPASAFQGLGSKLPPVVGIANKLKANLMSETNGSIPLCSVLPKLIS
The subject of the next data set is CDK1/cyclin B. Description: IC50 towards inhibition of various kinases: CDK1/cyclin B. It is filed as biochemical.
The next data set has as its system CK1δ/ε. Description: IC50 towards inhibition of various kinases: CK1δ/ε. Type of data set: biochemical.
In data set [1] the test system is mouse alveolar macrophages. The data set is described as follows: Lysosomes fusion: Rhodamine-110 processing and pHrodo-Red E. coli Bioparticles in murine alveolar macrophages. Type of data set: cell-based. The protocol:
We added Rhodamine-110 to the cells prior the pHrodo-Red conjugated E. coli Bioparticles® providing simultaneous uptake of both probes into phagosomes. Lysosomes fusion into nascent phagosomes brings proteases including cathepsin and triggers Rhodamine conversion.
Isolated mouse alveolar macrophages (from cftr^−/− or Δ508F CFTR mice) were cultured adherent on the poly-L-lysine coated glass bottom dishes for 24-48 h. Then they were treated with 10 μM Rhodamine-110 for 20 min at room temperature in the dark with following incubation with 0.1 mg/ml pHrodo-Red conjugated E. coli Bioparticles® for 1 hour at 37° C. […] Then the cells were washed twice with PBS, fixed with 4% PFA. The images were acquired immediately after fixation on Leica SP5 2-photon laser confocal microscope with a 63× (NA1.4) oil objective.
Isolated mouse macrophages were plated on 96-well plate with a density of 3-6,000 cells (20-60 μm diameter) per well, incubated in complete DMEM (10% FBS, 1% penicillin-streptomycin) at 37° C. under 5% CO2 pressure for 24-48 h. The cells were loaded with 5 μM Rhodamine-110 for 20 min at room temperature in the dark, fed with E. coli Bioparticles® conjugated to pHrodo-Red for 1 h at 37° C.

The next data set has as its target PfGSK-3 (Plasmodium falciparum, UniProt O77344). Description: biochemical. To be noted: read-out: IC50 value towards inhibition of PfGSK-3.
The target in the next data set is CLK1 (Homo sapiens, UniProt P49759). The data set is described as follows: IC50 towards inhibition of various kinases: CLK1. Type of data set: biochemical.
The next data set has as its target kinase. To be noted: cited from earlier work.
Another data set concerns the target Pim1 (Homo sapiens, UniProt P11309). Description: IC50 towards inhibition of various kinases: Pim1. Type of data set: biochemical.
Data set [2] deals with ΔF508 CFTR alveolar macrophages. Description: Intracellular Pseudomonas aeruginosa growth (bacterial killing) in ΔF508 CFTR alveolar macrophages, live cell microscopy. It is filed as cell-based, mouse. To be noted: ΔF508 CFTR expressing alveolar macrophages, 20 μM, 6 h observation. How it is done:
(§1) FIG. 2. Inhibition of Pseudomonas aeruginosa growth in cftr^−/− and ΔF508 alveolar macrophages by M3 metabolite and derivatives. A comparison of intracellular bacterial growth in single murine alveolar macrophages was carried out using live cell microscopy. Cells were fed DS-Red expressing P. aeruginosa for 30 min (MOI<10). Cells were exposed to M3 metabolite for 20 min prior to exposure to bacteria. Adherent and non-ingested bacteria were then removed by washing and incubation with antibiotics and live alveolar macrophages were observed microscopically for approximately 6 hours.
(§2) The data are presented as means of fluorescence intensities±SEM. Control conditions summarized data obtained from: WT—2 mice, 38 cells; ΔF508—6 mice, 120 cells; cftr^−/− 4 mice, 87 cells. […] In the presence of M3 metabolite we analysed data from: ΔF508—3 mice, 57 cells; cftr^−/−1 mouse, 67 cells. […]

Data set [3] relates to human alveolar macrophages. The data set is described as follows: Phagosomal acidification, pHrodo Red BioParticles, plate reader. Type of data set: cell-based. To be noted: 10 μM, read over 3 h. The protocol: (1C) Comparative effect of various compounds on phagosomal pH in human alveolar macrophages. Data summary from 3-10 patients for each compound tested at 10 μM. Data was obtained in triplicate for each patient and averaged for all patients with error bars indicating the SEM. Data were normalized to fluorescence changes observed in untreated control cells for each patient before averaging.
Broncho-alveolar lavage from humans was performed on consenting adults following a protocol approved by The University of Chicago Institutional Review Board. The patients included men and women, smokers and non-smokers, undergoing bronchoscopy for cancer biopsies prior to clinical treatment. […]
In brief, broncho-alveolar lavage fluid was strained through a 70 μm sterile cell strainer into a 50 ml conical tube centrifuge tube with a maximum broncho-alveolar lavage volume of 40 ml and a minimum volume of 10 ml followed by centrifugation at 1000×g for 5 min at 4° C. […] Cells were counted on Countess® (Invitrogen) with a distribution cut-off of 20-60 μm and cell viability determined by trypan blue exclusion. […]
After 24 h incubation cells were exposed to pHrodo Red BioParticles® (Life Technologies). Acidification was measured on 96-well plate format with 560 and 580 nm excitation and emission wavelengths at 37° C. in a Synergy MX, BioTek® plate reader. […]

Data set [4] has as its system cftr−/− alveolar macrophages. The data set is described as follows: Intracellular Pseudomonas aeruginosa growth (bacterial killing) in cftr−/− alveolar macrophages, live cell microscopy. It is filed as cell-based, mouse. To be noted: 20 μM, 6 h observation. The protocol:
as §1, §2

The next data set has as its system Pseudomonas aeruginosa. Description: Growth of P. aeruginosa culture (optical density). Type of data set: cell-based. To be noted: 37° C. The protocol:
FIG. 3. Absence of growth inhibition of P. aeruginosa culture by M3 metabolite and derivatives. 1/100 dilution of an overnight culture of P. aeruginosa was introduced in fresh culture medium and cultures were incubated at 37° C. with 20 μM of M3 metabolite or derivatives or 1 μM bafilomycin (negative control). Optical density (600 nm) was measured 2 h and 3.5 h after starting the cultivation, and every 30 min for 2.5 h.
Pseudomonas aeruginosa DsRed from single colony was grown in gentamicin containing TSB overnight at 37° C. with agitation at 300 RPM. Next day it was started the new culture at 1/100 dilution and certain compound of blocker were added to the tubes. We measured optical density (660 nm) of bacterial culture at every 30 minutes.

Another data set addresses DYRK1B (Homo sapiens, UniProt Q9Y463). Description: IC50 towards inhibition of various kinases: DYRK1B. It is filed as biochemical.
Another data set deals with CLK3 (Homo sapiens, UniProt P49761). The data set is described as follows: IC50 towards inhibition of various kinases: CLK3. It is filed as biochemical.
A further data set deals with CLK4 (Homo sapiens, UniProt Q9HAZ1). The data set is described as follows: IC50 towards inhibition of various kinases: CLK4. Type of data set: biochemical.
Chain of CLK4 (Q9HAZ1 whole entry, species assumed): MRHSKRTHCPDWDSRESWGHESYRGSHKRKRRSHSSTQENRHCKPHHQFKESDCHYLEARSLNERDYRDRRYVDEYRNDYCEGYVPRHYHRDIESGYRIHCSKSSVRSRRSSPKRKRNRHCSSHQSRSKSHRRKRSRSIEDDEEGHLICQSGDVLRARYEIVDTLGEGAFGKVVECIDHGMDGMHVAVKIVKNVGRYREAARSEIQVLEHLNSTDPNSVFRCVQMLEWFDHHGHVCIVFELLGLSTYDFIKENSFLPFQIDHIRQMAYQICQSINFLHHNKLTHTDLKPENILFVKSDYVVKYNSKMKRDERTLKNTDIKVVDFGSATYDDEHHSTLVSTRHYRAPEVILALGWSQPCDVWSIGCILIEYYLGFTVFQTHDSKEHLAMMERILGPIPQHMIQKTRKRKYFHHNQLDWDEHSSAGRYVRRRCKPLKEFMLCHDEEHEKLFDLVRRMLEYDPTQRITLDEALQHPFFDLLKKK
For the next data set, the target named is DYRK2 (Homo sapiens, UniProt Q92630). The data set is described as follows: IC50 towards inhibition of various kinases: DYRK2. It is filed as biochemical.
Chain of DYRK2 (Q92630 whole entry, species assumed): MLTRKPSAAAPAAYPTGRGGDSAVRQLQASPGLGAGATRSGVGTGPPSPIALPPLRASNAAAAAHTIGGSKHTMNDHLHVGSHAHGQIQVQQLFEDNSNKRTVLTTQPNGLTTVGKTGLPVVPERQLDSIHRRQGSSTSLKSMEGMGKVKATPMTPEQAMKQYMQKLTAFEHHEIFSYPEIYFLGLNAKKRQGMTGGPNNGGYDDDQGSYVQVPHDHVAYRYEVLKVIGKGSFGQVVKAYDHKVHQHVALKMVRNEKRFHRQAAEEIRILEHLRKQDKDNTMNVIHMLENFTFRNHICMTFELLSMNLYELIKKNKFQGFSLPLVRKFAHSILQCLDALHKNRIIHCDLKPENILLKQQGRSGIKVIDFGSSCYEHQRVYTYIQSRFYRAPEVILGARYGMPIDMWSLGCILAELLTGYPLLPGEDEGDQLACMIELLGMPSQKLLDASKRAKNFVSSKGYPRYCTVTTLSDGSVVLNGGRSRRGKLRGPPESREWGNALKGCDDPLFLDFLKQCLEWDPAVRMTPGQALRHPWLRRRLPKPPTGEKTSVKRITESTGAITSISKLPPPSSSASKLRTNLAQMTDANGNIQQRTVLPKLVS
The next data set addresses DYRK1A (Homo sapiens, UniProt Q13627). The data set is described as follows: IC50 towards inhibition of various kinases: DYRK1A. It is filed as biochemical.
In another data set the target is CLK2 (Homo sapiens, UniProt P49760). The data set is described as follows: IC50 towards inhibition of various kinases: CLK2. It is filed as biochemical.
Chain of CLK2 (P49760 whole entry, species assumed): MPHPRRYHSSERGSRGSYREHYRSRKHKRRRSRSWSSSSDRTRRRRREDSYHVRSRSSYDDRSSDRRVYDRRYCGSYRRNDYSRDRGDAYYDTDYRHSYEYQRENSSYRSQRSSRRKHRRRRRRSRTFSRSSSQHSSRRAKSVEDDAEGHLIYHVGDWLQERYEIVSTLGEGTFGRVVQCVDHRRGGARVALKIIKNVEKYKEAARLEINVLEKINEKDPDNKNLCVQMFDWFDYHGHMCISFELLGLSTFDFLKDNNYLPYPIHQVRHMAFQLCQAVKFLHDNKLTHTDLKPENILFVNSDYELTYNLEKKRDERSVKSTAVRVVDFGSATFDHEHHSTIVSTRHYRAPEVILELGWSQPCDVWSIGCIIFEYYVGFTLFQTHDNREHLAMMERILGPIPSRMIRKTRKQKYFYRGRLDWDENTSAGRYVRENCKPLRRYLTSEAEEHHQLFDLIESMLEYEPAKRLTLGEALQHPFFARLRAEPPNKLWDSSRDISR
The target in a further data set is CDK9/cyclin T (Homo sapiens, UniProt P50750). Description: IC50 towards inhibition of various kinases: CDK9/cyclin T. It is filed as biochemical.
Chain of CDK9/cyclin T (P50750 whole entry, species assumed): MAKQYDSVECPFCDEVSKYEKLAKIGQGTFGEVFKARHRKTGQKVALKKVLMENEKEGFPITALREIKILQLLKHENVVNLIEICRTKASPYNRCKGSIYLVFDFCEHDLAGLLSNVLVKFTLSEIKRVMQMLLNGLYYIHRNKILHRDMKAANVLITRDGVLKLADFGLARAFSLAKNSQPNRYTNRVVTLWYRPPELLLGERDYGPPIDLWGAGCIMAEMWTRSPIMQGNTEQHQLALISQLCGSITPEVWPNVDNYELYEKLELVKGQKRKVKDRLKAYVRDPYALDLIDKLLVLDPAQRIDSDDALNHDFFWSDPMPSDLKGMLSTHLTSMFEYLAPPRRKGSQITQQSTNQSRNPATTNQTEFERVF
Chain of CDK9/cyclin T (O60563 whole entry partner, species assumed): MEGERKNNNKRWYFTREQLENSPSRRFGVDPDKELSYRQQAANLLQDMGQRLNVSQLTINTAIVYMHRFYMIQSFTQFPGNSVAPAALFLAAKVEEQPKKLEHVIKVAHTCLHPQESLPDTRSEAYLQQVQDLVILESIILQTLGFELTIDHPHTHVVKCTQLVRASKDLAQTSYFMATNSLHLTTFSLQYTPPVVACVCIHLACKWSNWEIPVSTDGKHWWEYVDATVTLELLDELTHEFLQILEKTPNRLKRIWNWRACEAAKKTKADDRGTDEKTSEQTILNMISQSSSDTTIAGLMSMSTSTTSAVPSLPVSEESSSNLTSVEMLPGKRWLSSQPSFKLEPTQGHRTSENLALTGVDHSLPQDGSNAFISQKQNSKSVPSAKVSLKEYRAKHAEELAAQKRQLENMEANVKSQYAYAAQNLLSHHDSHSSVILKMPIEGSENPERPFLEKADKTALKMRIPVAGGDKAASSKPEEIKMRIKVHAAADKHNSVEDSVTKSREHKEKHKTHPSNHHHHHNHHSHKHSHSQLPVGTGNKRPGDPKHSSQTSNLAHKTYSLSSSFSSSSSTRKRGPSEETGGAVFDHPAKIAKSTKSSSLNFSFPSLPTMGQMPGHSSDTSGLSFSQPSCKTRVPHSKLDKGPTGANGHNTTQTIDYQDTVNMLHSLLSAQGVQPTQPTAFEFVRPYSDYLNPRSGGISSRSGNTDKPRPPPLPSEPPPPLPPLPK

Chain of PfGSK-3 (O77344 1-440): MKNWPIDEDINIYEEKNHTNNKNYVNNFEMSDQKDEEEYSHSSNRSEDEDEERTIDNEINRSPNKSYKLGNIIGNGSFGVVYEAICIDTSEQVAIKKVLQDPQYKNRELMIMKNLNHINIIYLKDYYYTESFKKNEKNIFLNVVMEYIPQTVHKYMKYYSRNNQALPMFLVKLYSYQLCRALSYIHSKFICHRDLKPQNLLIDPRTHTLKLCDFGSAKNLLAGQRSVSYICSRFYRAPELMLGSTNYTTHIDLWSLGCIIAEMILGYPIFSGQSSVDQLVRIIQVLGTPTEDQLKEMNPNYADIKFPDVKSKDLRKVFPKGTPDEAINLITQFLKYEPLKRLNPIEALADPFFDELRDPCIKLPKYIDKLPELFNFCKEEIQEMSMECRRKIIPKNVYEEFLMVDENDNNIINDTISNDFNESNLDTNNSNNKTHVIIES
Chain of Pim1 (P11309 whole entry, species assumed): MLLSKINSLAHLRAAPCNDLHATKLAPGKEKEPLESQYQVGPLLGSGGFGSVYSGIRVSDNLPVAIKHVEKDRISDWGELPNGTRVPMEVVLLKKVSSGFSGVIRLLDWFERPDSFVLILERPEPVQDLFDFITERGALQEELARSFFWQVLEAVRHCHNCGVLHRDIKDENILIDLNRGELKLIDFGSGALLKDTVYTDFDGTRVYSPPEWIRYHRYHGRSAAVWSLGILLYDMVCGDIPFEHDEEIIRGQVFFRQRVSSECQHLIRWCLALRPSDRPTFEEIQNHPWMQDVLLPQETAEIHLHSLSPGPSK
Chain of DYRK1B (Q9Y463 whole entry, species assumed): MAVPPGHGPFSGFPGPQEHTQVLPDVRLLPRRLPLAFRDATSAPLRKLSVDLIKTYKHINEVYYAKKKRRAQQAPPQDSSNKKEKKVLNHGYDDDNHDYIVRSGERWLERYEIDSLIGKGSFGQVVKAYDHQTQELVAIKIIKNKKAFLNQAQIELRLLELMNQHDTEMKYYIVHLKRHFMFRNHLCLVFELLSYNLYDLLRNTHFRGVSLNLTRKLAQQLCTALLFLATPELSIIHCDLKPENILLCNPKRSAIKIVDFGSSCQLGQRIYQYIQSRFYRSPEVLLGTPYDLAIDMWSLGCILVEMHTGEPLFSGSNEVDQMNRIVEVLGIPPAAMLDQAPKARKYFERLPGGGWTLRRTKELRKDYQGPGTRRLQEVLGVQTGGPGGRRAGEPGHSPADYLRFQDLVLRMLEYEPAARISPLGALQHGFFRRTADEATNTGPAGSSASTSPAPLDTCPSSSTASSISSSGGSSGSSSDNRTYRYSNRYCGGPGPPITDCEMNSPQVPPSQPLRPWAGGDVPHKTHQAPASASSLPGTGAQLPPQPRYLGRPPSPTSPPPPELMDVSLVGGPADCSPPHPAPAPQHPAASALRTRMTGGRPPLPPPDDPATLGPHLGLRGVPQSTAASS

For the molecule `CC[C@@H](Nc1nc(NCc2ccccc2)c2ncn(C(C)C)c2n1)C(=O)O` [Metabolite M3, (2R)-2-[[9-isopropyl-6-(phenylmethylamino)purin-2-yl]amino]butanoic acid], the IC50 (usually the concentration needed to halve the response being measured) at CK2 is over 100 µM; in the data set on GSK-3α/β it was over 100 µM; against DYRK3, over 100 µM; in the data set with CDK1/cyclin B, 11 µM; in the data set with CK1δ/ε, 21 µM; on PfGSK-3, over 100 µM. Further, the IC50 against CLK1 was 18 µM; on Pim1 it was over 100 µM; on DYRK1B, 22 µM; on CLK3 it was 52 µM; on CLK4, 19 µM; on DYRK2, 23 µM. Besides, the IC50 against DYRK1A was 19 µM; against CLK2, 14 µM; against CDK9/cyclin T it was over 10 µM. Also, the “lysosomes fusion / rhodamine-110 processing by lysosomal proteases” value in data set [1] (FIG. 4B, 10 μM, mouse alveolar macrophages, versus control cells, listed as M3 metabolite) is given as “increased; also recorded: enhanced lysosomes fusion”. Moreover, the kinase inhibiting properties result at kinase was “does not exhibit kinase inhibiting properties”. In addition, the “rescue of bacterial killing (intracellular P. aeruginosa growth)” value in [2] and in data set [4] was “at least as efficient as with (R)-roscovitine” in each case. Besides, the “phagosomal acidification over phagosomal pH observed in untreated cells” value in data set [3] is given as “significantly enhance acidification”. Moreover, the “prevention of bacterial growth in culture (optical density)” value (“prevention of bacterial growth” for short) in the data set with Pseudomonas aeruginosa (20 μM) was “unable to prevent bacterial growth”.

In the case of `CC[C@H](CO)Nc1nc(NCc2ccccc2)c2ncn(C(C)C)c2n1` [(R)-roscovitine, 2-(R)-(1-ethyl-2-hydroxyethylamino)-6-benzylamino-9-isopropylpurine, reference compound], the IC50 at DYRK3 came to 59 µM; against DYRK2, 2.3 µM. Besides, the “fluorescence from pHrodo-Red conjugated E. coli Bioparticles phagocytosis” value in [1] (FIG. 4A, alveolar macrophages, compared to control) is reported as “decreased”. For the same molecule, the “fluorescence resulting from rhodamine-110 processing by lysosomal proteases” value in data set [1] (FIG. 4A, confocal microscopy, compared to control without compound) is “increased”. Also, the “rescue of bacterial killing (intracellular P. aeruginosa growth)” value in [2] and in [4] was “significantly rescues bacterial killing” in each case. The “phagosomal acidification over phagosomal pH observed in untreated cells” value in [3] is “significantly enhance acidification”. In the data set on Pseudomonas aeruginosa (20 μM), the “prevention of bacterial growth” value was “unable to prevent bacterial growth”.

`CO/C1=C\C(C)=C\[C@@H](C)[C@@H](O)[C@@H](C)C/C(C)=C/C=C/[C@H](OC)[C@@H]([C@@H](C)[C@@H](O)[C@H](C)[C@@]2(O)C[C@@H](O)[C@H](C)[C@@H](C(C)C)O2)OC1=O` [bafilomycin]: in the data set on Pseudomonas aeruginosa (1 μM), the “prevention of bacterial growth” value is “unable to prevent bacterial growth”.

As to `CC(C)n1cnc2c(NCc3ccccc3)nc(N[C@@H](CO)C(=O)O)nc21` [Compound 6, (2S)-2-[[6-(benzylamino)-9-isopropyl-purin-2-yl]amino]-3-hydroxy-propanoic acid], the melting point (as a rule, the temperature, or range, at which the solid turns liquid) was 120 to 130 °C.

The record behind these values is US10561661B2, “Purine derivative compounds for medical use” (MANROS THERAPEUTICS, priority 2014, dated 2020).
